In patent publication US20250161295A1, “EXATECAN FORMULATION” (Yale University, priority 2022, published 2025):
Counter-ions that a name gives are not always drawn.

What was measured:
[1] = tested on: PDVC57 cells (SCC tumors); assay: Titrated doses of a single injection of water-based exatecan mesylate formulation on tumor size (Example 5); type: in vivo, C57BL/6J mice
Method: In a third experiment, 15 mice (i.e., five groups each containing three mice) with tumors ranging in size 59-80 mm^3, calculated as described above, were examined. PDVC57 cells were injected into 6-week-old female C57BL/6J mice. Treatment was administered seven days after tumor cell inoculation. Intratumoral injection performed using BD insulin syringe (30-gauge×8 mm needle; #328468). Mice were randomly assigned to one of five groups and were given a single intratumoral injection of either the vehicle (UltraPure Distilled Water, Invitrogen, #10977-015) or one of the following concentrations of the water-based formulation containing exatecan mesylate: 10 mg/mL, 5 mg/mL, 2.5 mg/mL or 1.25 mg/mL for a total treatment volume of 0.02 mL. All the mice were harvested 14 days post treatment for histological assessments.

[2] = pH-dependent exatecan mesylate solubility in phosphate buffers (precipitate rating); type: physicochemical; set-up: key to Precipitate rating (Yes/No): Precipitate rating “Yes” means visible precipitate observed at 10× magnification; “No” means no visible precipitate observed at 10× magnification
Method: Materials and methods A water-based formulation was made containing exatecan mesylate at a concentration of 10 mg/mL exatecan mesylate in water (Invitrogen UltraPure Distilled Water #10977-015). Phosphate buffers A and B were made by dissolving either 1M potassium phosphate monobasic (KH2PO4) for buffer A or 1M potassium phosphate dibasic ([…]) for buffer B in distilled water. Solutions with pH values ranging between 4.3 and 9.6 were prepared by mixing buffer A (pH 4.3) with buffer B (pH 9.6) at pre-determined percentages. A pH meter was used to confirm the pH of the resulting phosphate buffer solutions by dipping the electrode into the solution.
To determine the pH solubility of the water-based formulation, 5 μL of the 10 mg/mL EXA in DI water was added to 100 μL 1M phosphate buffer at varying pH levels in a 96-well plate to produce a final concentration of […] EXA per milliliter. The solubility tests were conducted at pH 4.30 (0% buffer B), pH 5.6 (10% buffer B), pH 6.1 (20% buffer B), pH 6.4 (30% buffer B), pH 6.7 (40% buffer B), pH 7.0 (50% buffer B), pH 7.2 (60% buffer B), pH 7.5 (70% buffer B), pH 7.8 (80% buffer B), pH 8.2 (90% buffer B) and pH 9.6 (100% buffer B). Precipitation was assessed and images of the precipitate at the bottom of the 96-well plate were taken after 1 hour.

[3] = Dissolution of exatecan mesylate in sterile dH2O (stock preparation); type: physicochemical
Method: (§1) Exatecan mesylate (“EXA”) (DX895If; MedChemExpress #HY-13631A) was dissolved in sterile dH20 (Invitrogen 10977-023) to prepare a 5 mg/mL or a 10 mg/mL stock solution. […] The concentration was confirmed by HPLC and further dilutions prepared as needed in sterile dH2O.

[4] = tested on: PDVC57 cells (SCC tumors); assay: Single intratumoral injection of water-based exatecan mesylate formulation, followed to endpoint tumor volume 1 cm^3 (Example 4); type: in vivo, C57BL/6J mice
Method: In a second experiment, 15 mice with tumors ranging in size from 50-100 mm^3, calculated as described above, were examined.
PDVC57 cells were injected into 6-week-old female C57BL/6J mice. Treatment was administered by a single intratumoral injection seven days after tumor cell inoculation. Intratumoral injection was performed using BD insulin syringe (30-gauge×8 mm needle; #328468). The vehicle was Invitrogen UltraPure Distilled Water #10977-015.
The experimental group received 10 mg/mL exatecan. The treatment volume was 0.02 mL. Ten of the mice were given a single injection of a water-based formulation containing exatecan mesylate while the other 5 mice received a vehicle injection of ultrapure DI water and served as the control group. These mice were observed until the endpoint at which their tumor volume was 1 cm^3. […]

[5] = tested on: SCC tumors (PDVC57 cells); assay: Intratumoral injection of exatecan in PDVC57 SCC tumors (Example 1, Experiments 1 and 2): tumor outcome; type: in vivo, C57BL/6J mice; details: EXA 0.2 mg single intratumoral injection; of 6 mice harvested (4 not harvested)
[6] = tested on: SCC tumors (PDVC57 cells); assay: as above; type: in vivo, C57BL/6J mice
Method: as §1
Control groups received an equal volume of sterile dH2O.
16 days post-treatment, when the first vehicle control tumors reached 1 cm in one dimension, half (N=5) of each group was harvested for histology: tumors were measured, ranked by volume (V=(½)(W^2×L)), and every-other one harvested (#1, 3, 5, 7, and 9 were harvested and #2, 4, 6, 8, and 10 were not).

[7] = tested on: PDVC57 cells (SCC tumors); assay: Single intratumoral injection of water-based exatecan mesylate formulation in mouse model of SCC (Example 3); type: in vivo, C57BL/6J mice
Method: Six-week old female C57BL/6J mice were used in this study.
PDVC57 cells were developed in, and obtained from, the laboratory of Dr. Allan Balmain (Quintanilla, et al., Carcinogenesis 1991, 12 (10), 1875-1881). Mice were anesthetized with avertin and their flanks shaved. The mice were then given an intradermal injection with of 5 million PDVC57 cells in suspension in 100 μL PBS. A 1 cc syringe fitted with a 27 g needle was used for the intradermal injection.
Seven days following tumor cell inoculation, the mice were given either a single intratumoral injection of 10 mg/mL exatecan mesylate in ultrapure distilled water (Invitrogen, Catalog #10977-015) or a vehicle injection using a BD insulin syringe (30-gauge×8 mm needle; #328468). The vehicle was invitrogen UltraPure Distilled Water #10977-015. The treatment volume was 0.02 mL.
Mice were sedated. Calipers were used to measure tumor diameter. Tumor volume was calculated from micrometer measurements using the following formula: […]
When tumors reached the endpoint, i.e., tumor volume of 1 cm^3, mice were euthanized by isoflurane inhalation and tumors dissected away from subcutaneous tissue. Isolated tumors were bisected along the longest axis, fixed in 10% neutral buffered fonnalin and submitted to Yale Research Pathology for embedding, sectioning, and H&E staining. Resulting slides were scanned using a Zeiss AxioObserver Z1 with TissueGnostics TissueFAXS software. Images were analyzed using Fiji software.
In a first experiment, 20 mice with tumors ranging in size from 45-85 mm^3 were examined. The group size was 10. Ten of the mice were given a single injection of a water-based formulation containing exatecan mesylate (10 mg/mL), while the other 10 mice received a vehicle injection of ultrapure DI water and served as the control group. For each group (experimental group or control), half of the mice were harvested 16 days post-treatment for histological assessment, the other half were harvested 32 days post-treatment if they had discernible tumors or monitored until day 66 if no palpable tumors were observed.

ID8-Luc tumor cells = assay: BNP-111 in vivo efficacy in ID8 ovarian cancer model (IVIS tumor burden); set-up: species or system C57Bl/6 mice; details: 2.5 mpk i.p. once weekly x4; day 56
Method: Luciferase expressing ID8-Luc tumor cells were washed twice in sterile PBS, resuspended in sterile PBS and a 1 ml 27 G syringe used to inject 1 million cells intraperitoneally (i.p.) into syngeneic female C57Bl/6 mice.

[8] = Intratumoral injection of exatecan (Example 1): toxicity
Method: (§2) SCC tumors were established by subcutaneous injection of 5 million PDVC57 cells into the right flank of syngeneic C57BL/6J mice. Seven days later, when tumors ranged from 4.5-5.5 mm in diameter, mice were evenly distributed among the treatment groups (N=5-10 mice/group, see below) and received intratumoral injections of vehicle (dH2O) or exatecan.
(§3) A 0.5-mL 31 G syringe (BD Insulin Syringe #328468) was used to deliver 0.1 mg or 0.2 mg exatecan in a 20-microliter volume, or 0.4 mg in a 40-microliter volume (because of solubility limitations). Control groups received an equal volume of sterile dH2O. The needle was placed into the tumor and the appropriate volume was slowly injected (approximately over 5 sec). The needle was held in place for 10 seconds after the injection was complete, then slowly removed while maintaining finger pressure on the injection site.

[9] = mouse, in vivo
Method: as §2, §3

[10] = 10 mg/mL, 0.02 mL single injection

CC[C@@]1(O)C(=O)OCc2c1cc1n(c2=O)Cc2c-1nc1cc(F)c(C)c3c1c2[C@@H](N)CC3 [EXA, Exatecan mesylate]
Tumor size compared to vehicle ([1]; 2.5 mg/mL, 0.02 mL, 14 days): almost complete reduction in tumor size
Tumor size compared to vehicle ([1]; 5 mg/mL, 0.02 mL, 14 days): almost complete reduction in tumor size
Tumor size compared to 1.25 mg/mL and vehicle ([1]; 10 mg/mL, 0.02 mL, 14 days): significantly reduced tumors
Tumor size compared to vehicle ([1]; all doses administered (10, 5, 2.5, 1.25 mg/mL; 0.02 mL), 14 days post treatment): reduced tumor size
pH at which enhanced precipitation and decrease in solubility is shown ([2]; 1M phosphate buffer): ≥ 7.12
Precipitate rating (Yes/No) ([2]; Control (distilled water), 0% buffer A, 0% buffer B, pH 7): No
Onset of precipitation after addition to phosphate buffer ([2]; EXA/DI water mixture added to phosphate buffer): generally immediate
Precipitate rating (Yes/No) ([2]; Sample 1: 100% buffer A, 0% buffer B, pH 4.3): No
Precipitate rating (Yes/No) ([2]; Sample 2: 90% buffer A, 10% buffer B, pH 5.6): No
Precipitate rating (Yes/No) ([2]; Sample 3: 80% buffer A, 20% buffer B, pH 6.1): No
Precipitate rating (Yes/No) ([2]; Sample 4: 70% buffer A, 30% buffer B, pH 6.4): No
Precipitate rating (Yes/No) ([2]; Sample 5: 60% buffer A, 40% buffer B, pH 6.7): Yes
Precipitate rating (Yes/No) ([2]; Sample 6: 50% buffer A, 50% buffer B, pH 7.0): Yes
Precipitate rating (Yes/No) ([2]; Sample 7: 40% buffer A, 60% buffer B, pH 7.2): Yes
Precipitate rating (Yes/No) ([2]; Sample 8: 30% buffer A, 70% buffer B, pH 7.5): Yes
Precipitate rating (Yes/No) ([2]; Sample 9: 20% buffer A, 80% buffer B, pH 7.8): Yes
Precipitate rating (Yes/No) ([2]; Sample 10: 10% buffer A, 90% buffer B, pH 8.2): Yes
Precipitate rating (Yes/No) ([2]; Sample 11: 0% buffer A, 100% buffer B, pH 9.6): Yes
Dissolution in sterile dH2O ([3]; 10 mg/mL stock): warming to 60 °C plus sonication and vortexing were needed
Dissolution in sterile dH2O ([3]; at 5 mg/mL): dissolves immediately
Mice with tumors that reached endpoint volume (1 cm^3) ([4]; 10 mg/mL, 0.02 mL single injection, through day 77): 4 of 10
Mantel-Cox log rank test p (survival vs dH2O vehicle) ([4]; 77 days post-treatment, 10 mg/mL, 0.02 mL): < 0.0001
Cure ([4]; Day 77 post-treatment): 60%
Mice remaining with no palpable tumor ([4]; Day 77 post-treatment): 6 of the 10
Mice with a large tumor (clinical images) ([4]; day 22 post-treatment, 10 mg/mL, 0.02 mL): 1 of 10
Time at which tumors reached endpoint volume ([4]; the 4 mice that reached 1 cm^3): 34-52 days post-treatment
Histology (N): mice with tumor [5]: Tumor in 2
Mice whose tumor progressed to 1 cm ([6]; 0.2 mg, the five mice not harvested on day 16): one of the remaining five
Efficacy of treatment (summary) ([6]; 0.2-mg dose per animal): very effective
Tumor incidence ([6]; EXA 0.1 mg x2): 57%
Tumor incidence (mice) ([6]; EXA 0.1 mg x2): 4 of 7
Mice remaining (days post-treatment), no palpable tumor ([6]; EXA 0.1 mg x2, day 36): 2 (day 36) -
Histology (N): mice with tumor ([6]; EXA 0.1 mg x2, of 5 mice harvested (2 not harvested)): Tumor in 4
Tumor incidence ([6]; EXA 0.2 mg single injection, N=10): 20%
Mice remaining (days post-treatment), no palpable tumor ([6]; EXA 0.2 mg single injection, day 53): 4 (day 53) -
Mice remaining (days post-treatment), no palpable tumor ([6]; EXA 0.2 mg single injection, day 53, listed as exatecan): four
Mice remaining (days post-treatment), no palpable tumor ([6]; EXA 0.4 mg single injection, day 36): 1 (day 36) -
Efficacy compared with single 0.2 mg dose ([6]; two doses of 0.1 mg per animal separated by 3 days): less effective
Mice remaining (day 66 post-treatment), no palpable tumor [7, 10]: 4 - no
Tumor incidence overall [7, 10]: (20%)
Tumor incidence overall (mice) [7, 10]: 2 of 10
Day 32 harvest for histology: tumor in ([7]; 10 mg/mL, 0.02 mL single injection, 4 mice not harvested): 1 of 1. 4
% of mice that eliminated their tumor ([7]; 10 mg/mL, 0.02 mL single injection, assessed at day 16 and day 66): 80%
Day 16 harvest for histology: tumor in ([7]; 10 mg/mL, 0.02 mL single intratumoral injection): 1 of 5
Histological assessment: mice with no discernible tumor ([7]; 5 mice per group): 4 out of 5
Inflammation of surrounding tissue compared to vehicle-treated mice ([7]; single dose, histology): decreased inflammation
Tissue damage ([7]; single dose, histology): minimal tissue damage
Reduction of tumor burden (photon flux) (ID8-Luc tumor cells): 62.16%
Toxicity (summary) ([8]; 0.4 mg per animal): lethality
Toxicity: number of mice in which lethal ([8]; EXA 0.1 mg x2 (day 0 and day 3), of 9 mice): Lethal in 2 of
Toxicity: number of mice in which lethal ([8]; EXA 0.4 mg single injection, of 8 mice): Lethal in 7 of
Tolerability compared with single 0.2 mg dose [9]: less well tolerated
